Drawing on PubChem BioAssay AID1159564 (GlaxoSmithKline (GSK), 2015), this text covers IC50 for 54 compounds.

The subject of this assay is L. donovani-infected THP-1 macrophages, intracellular amastigote imaging. The assay can be described thus: antileishmanial activity in infected THP-1 macrophages – imaging, THP-1 host macrophages, host toxicity (AID 1159564).
Where [1] appears, read: measured here: THP-1 host cell toxicity.
Setting [2] is: measured here: amastigotes per macrophage.

The structures appear in SMILES notation. Activity calls are given as the source filed them. No rule for the calls is given here.

For orientation: IC50 means the concentration that inhibits the measured activity by half. As to `N#Cc1nc(C=Cc2ccccc2)oc1NCc1cccnc1`, the half-maximal inhibitory concentration (IC50) was 40 µM. The compound also gave an IC50 under setting [1] of 32 µM. The half-maximal inhibitory concentration (IC50) under setting [2] came out at 32 µM.
In the case of `COc1ccc(NS(=O)(=O)c2cc(NC(=O)c3ccc([N+](=O)[O-])s3)ccc2OC)cc1`, the IC50 is 0.79 µM. Besides, under setting [1], the concentration for half-maximal inhibition (IC50) is 13 µM. This compound showed an IC50 under setting [2] of 0.79 µM.
Take `CC(=O)NC1(c2ccccc2)CCN(CC(=O)Nc2ccccc2-c2ccccc2)CC1`: the IC50 is > 50 µM (inactive). The compound also yielded an IC50 under setting [1] of over 50 µM. Moreover, under setting [2], the 50% inhibitory concentration (IC50) is 40 µM.
With `CS(=O)(=O)N1CCC(Nc2ncc(Br)c(Nc3cccc(F)c3C(N)=O)n2)CC1`, the half-maximal inhibitory concentration (IC50) is 1.6 µM. For the same compound, the half-maximal inhibitory concentration (IC50) under setting [1] was 1 µM. Moreover, the IC50 under setting [2] was 0.79 µM.
Turning to `Cc1ccccc1NS(=O)(=O)c1ccc2[nH]cc(C(=O)NC3CCCC(C)C3C)c(=O)c2c1` (configuration not stated), the half-inhibitory concentration (IC50) was 16 µM. In addition, the half-maximal inhibitory concentration (IC50) under setting [1] was 13 µM. Further, the concentration for half-maximal inhibition (IC50) under setting [2] was 16 µM.
Consider `O=C(CC1(O)C(=O)N(Cc2cccs2)c2ccc(Br)cc21)c1cccnc1` (configuration not stated), for which the IC50 is > 50 µM (inactive). Besides, the IC50 under setting [1] is 20 µM. The IC50 under setting [2] was over 50 µM.
In the same order, the values of `c1ccc(CNc2cccc3ccncc23)cc1` are 7.9 µM, 50 µM and 5 µM.
For `Cc1ccccc1NS(=O)(=O)c1ccc2[nH]cc(C(=O)NC3CCCC3)c(=O)c2c1`, in that order: > 50 µM (inactive), 32 µM and 40 µM.
`COc1ccc(-c2cnc(C)o2)cc1S(=O)(=O)Nc1ccc(C)cc1C`: the half-inhibitory concentration (IC50) was 3.2 µM. The half-inhibitory concentration (IC50) under setting [1] is over 50 µM. Besides, the IC50 under setting [2] came out at 2.5 µM.
In the same order, the values of `N#Cc1ccc(Br)cc1[N+](=O)[O-]` are 20 µM, 25 µM and 13 µM.
Take `CCC1Oc2cc(S(=O)(=O)N(C)CC(=O)N3CCc4ccccc4C3)c(C)cc2NC1=O` (configuration not stated): the IC50 was > 50 µM (inactive). The compound also returned an IC50 under setting [1] of over 50 µM. The compound further returned an IC50 under setting [2] of 32 µM.
In the same order, the values of `CC(=Cc1ccccc1)CN1CCC(=O)N(Cc2cccnc2)CC1` are > 50 µM (inactive), 40 µM and 32 µM.
With `Cc1cccc(N2CCCN(Cc3c[nH]c4ccccc34)CC2)n1`, the concentration for half-maximal inhibition (IC50) is 10 µM. The IC50 under setting [1] came to 10 µM. Under setting [2], this compound gave an IC50 of 10 µM.
As to `CN(C)Cc1ccc(N2CCC(NS(=O)(=O)c3ccc(Cl)cc3)CC2)cc1`, the IC50 is > 50 µM (inactive). The IC50 under setting [1] worked out at 25 µM. The compound further came in with a 50% inhibitory concentration (IC50) under setting [2] of 25 µM.
For the compound `CNc1cncc(C2CCCN2C(=O)Cc2coc3cc(C)ccc23)n1` (configuration not stated), the IC50 was > 50 µM (inactive). Under setting [1], the IC50 is over 50 µM. For the same compound, under setting [2], the IC50 was found to be 0.79 µM.
Take `Cc1nn(-c2nc(N)nc(-c3ccccn3)n2)c(N)c1-c1ccccc1`: the IC50 was 3.2 µM. Under setting [1], this compound displayed an IC50 of 20 µM. The same compound came in with a half-maximal inhibitory concentration (IC50) under setting [2] of 2 µM.
Take `COc1cccc2sc(CN(C)C(=O)C3CNCCN3c3ccc(F)cc3)c(C)c12` (configuration not stated): the IC50 is 6.3 µM. The IC50 under setting [1] worked out at 13 µM. Moreover, under setting [2], the IC50 was found to be 4 µM.
As to `CCOc1ccc(CN(C)Cc2nc(N)nc(Nc3ccc(C)cc3)n2)cc1`, the half-inhibitory concentration (IC50) was 4 µM. Moreover, under setting [1], the IC50 was 40 µM. Under setting [2], the IC50 was 3.2 µM.
For `CNC(=O)C1Cc2ccccc2N1C(=O)Cc1ccc(F)cc1` (configuration not stated), in that order: > 50 µM (inactive), over 50 µM and over 50 µM.
In the case of `CC(=O)Nc1ccc(-c2ccnc(Nc3cccc(C#N)c3)n2)cc1`, the IC50 was 16 µM. The compound further returned an IC50 under setting [1] of 10 µM. In addition, under setting [2], the IC50 was determined as 10 µM.
Take `COc1ccc(-c2csc(NC(=O)c3ccc([N+](=O)[O-])s3)n2)cc1`: the IC50 is 4 µM. Besides, the concentration for half-maximal inhibition (IC50) under setting [1] was over 50 µM. Under setting [2], this compound returned an IC50 of 1.6 µM.
In the same order, the values of `CC(=O)Nc1ccc(Nc2nccc(-c3cnn4ncccc34)n2)cc1C(F)(F)F` are 0.025 µM, 0.01 µM and 0.016 µM.
For `O=C(Nc1ncc([N+](=O)[O-])s1)C1CC1`, in that order: > 50 µM (inactive), over 50 µM and over 50 µM.
On to `Nc1nc(-c2ccccn2)nc(-n2nc(-c3cccc(C(F)(F)F)c3)cc2N)n1`, for which the IC50 is 0.79 µM. Under setting [1], this compound showed an IC50 of 5 µM. For the same compound, the half-maximal inhibitory concentration (IC50) under setting [2] worked out at 0.5 µM.
In the case of `O=C1CN(C(=O)c2cccc(Nc3ncc(-c4ccc5c(c4)OCO5)cn3)c2)CCN1`, the half-inhibitory concentration (IC50) was 5 µM. Under setting [1], the IC50 is 63 µM. In addition, under setting [2], the 50% inhibitory concentration (IC50) was 2 µM.
`O=C1CN(Cc2ccco2)C2CS(=O)(=O)CC2N1c1ccc(Cl)cc1` (configuration not stated): the IC50 is > 50 µM (inactive). The IC50 under setting [1] was over 50 µM. Further, under setting [2], the IC50 was over 50 µM.
Take `CCNc1cc(-c2ccccn2)nc(Nc2ccccc2)n1`: the IC50 is 0.79 µM. Under setting [1], this compound came in with a concentration for half-maximal inhibition (IC50) of 20 µM. For the same compound, under setting [2], the IC50 was found to be 0.63 µM.
Regarding `CC(Cn1ccnc1)NC(=O)COc1ccc(Cl)c(Cl)c1` (configuration not stated), the IC50 was > 50 µM (inactive). For the same compound, the IC50 under setting [1] is over 50 µM. Under setting [2], the IC50 was over 50 µM.
With `COc1ccc(Nc2nc(-c3ccccn3)cs2)c(OC)c1`, the IC50 was 2.5 µM. The compound further displayed an IC50 under setting [1] of over 50 µM. In addition, the IC50 under setting [2] was 2 µM.
For `CC(C)(C)C(Cn1ccnc1)NC(=O)c1ccc2nc(C3CC3)oc2c1` (configuration not stated), in that order: > 50 µM (inactive), 16 µM and over 50 µM.
On to `Cc1ccc(NC(C)C(=O)Nc2ccc(C#N)cc2)cc1S(=O)(=O)N1CCCCC1` (configuration not stated), for which the IC50 is 10 µM. This compound also had an IC50 under setting [1] of 50 µM. Under setting [2], this compound yielded an IC50 of 5 µM.
`O=C(c1ccc(Cl)cc1)c1ccc(OC(=O)N2CCOCC2)cc1`: the half-inhibitory concentration (IC50) is 5 µM. The IC50 under setting [1] is over 50 µM. The compound also gave an IC50 under setting [2] of 2 µM.
In the same order, the values of `Cc1ccc(C)c(CN2C(=O)NC3(CCc4ccccc43)C2=O)c1` (configuration not stated) are > 50 µM (inactive), over 50 µM and 16 µM.
As to `N#CN1CC[C@@H](NC(=O)Nc2ccccc2Oc2ccccc2)C1`, the half-inhibitory concentration (IC50) is 5 µM. Besides, the half-maximal inhibitory concentration (IC50) under setting [1] turned out to be 25 µM. This compound had an IC50 under setting [2] of 4 µM.
For `O=C(CSc1ccc(F)cc1)N[C@@H](Cc1cnc[nH]1)C(=O)NCCc1ccccc1`, in that order: > 50 µM (inactive), over 50 µM and over 50 µM.
Turning to `CC1=NN(C(=O)CCn2cnc([N+](=O)[O-])n2)C(O)(C(F)(F)F)C1` (configuration not stated), the IC50 was > 50 µM (inactive). Under setting [1], this compound registered an IC50 of over 50 µM. In addition, the half-inhibitory concentration (IC50) under setting [2] was over 50 µM.
On to `CNC(=O)C1Cc2ccccc2N1C(=O)COc1cccc(OC)c1` (configuration not stated), for which the IC50 was > 50 µM (inactive). The concentration for half-maximal inhibition (IC50) under setting [1] is over 50 µM. This compound also yielded an IC50 under setting [2] of over 50 µM.
Consider `Cc1cccnc1NC(=O)c1cccc(OCc2c(C)noc2C)c1`, for which the IC50 is 20 µM. The 50% inhibitory concentration (IC50) under setting [1] turned out to be 6.3 µM. Further, under setting [2], the 50% inhibitory concentration (IC50) was 10 µM.
As for `Cc1cc2cncn2c(C2CCCCN2C(=O)c2cccs2)n1` (configuration not stated), the IC50 is > 50 µM (inactive). Further, under setting [1], the 50% inhibitory concentration (IC50) is over 50 µM. Under setting [2], this compound gave a 50% inhibitory concentration (IC50) of over 50 µM.
Consider `COc1ccc(CN(C)Cc2ccncc2)cc1-c1ccc(S(=O)(=O)NC2CCC2)s1`, for which the IC50 was > 50 µM (inactive). Also, the 50% inhibitory concentration (IC50) under setting [1] was determined as 20 µM. The IC50 under setting [2] is 16 µM.
For `Cc1[nH]n2c(=O)c3c(nc2c1-c1ccc(Cl)cc1)CCCC3`, in that order: > 50 µM (inactive), 13 µM and over 50 µM.
In the same order, the values of `CC(Cn1ccnc1)NC(=O)C1CC1c1cccc(Cl)c1Cl` (configuration not stated) are > 50 µM (inactive), over 50 µM and 10 µM.
For `CN(C)S(=O)(=O)c1ccc(Cl)c(C(=O)Nc2nc(-c3ccccn3)cs2)c1`, in that order: 10 µM, 6.3 µM and 5 µM.
As for `CCCN(Cc1ccc(OC)c(OC)c1)Cc1cc(=O)c2c(C)cc(C)cc2[nH]1`, the IC50 was 25 µM. For the same compound, the IC50 under setting [1] was determined as 5 µM. The compound further returned a half-maximal inhibitory concentration (IC50) under setting [2] of 20 µM.
For `Cc1nc2nc(C)c(Cc3ccc(C(C)C)cc3)c(=O)n2[nH]1`, in that order: 32 µM, over 50 µM and 16 µM.
Regarding `NS(=O)(=O)c1ccc(Nc2nccc(-c3cnn4ncccc34)n2)cc1`, the half-maximal inhibitory concentration (IC50) is 2 µM. Under setting [1], this compound returned an IC50 of 0.25 µM. In addition, the IC50 under setting [2] came out at 1 µM.
Regarding `Cc1ccc2c(c1)-c1onc(C(=O)N3CCCCC3c3cccnc3)c1CO2` (configuration not stated), the IC50 is > 50 µM (inactive). The half-inhibitory concentration (IC50) under setting [1] worked out at 40 µM. In addition, the IC50 under setting [2] worked out at 40 µM.
Turning to `CCN(CC)c1nc(Nc2ccncc2)nc2ccccc12`, the 50% inhibitory concentration (IC50) is 6.3 µM. The compound also displayed a 50% inhibitory concentration (IC50) under setting [1] of 25 µM. Under setting [2], this compound had an IC50 of 2 µM.
In the same order, the values of `COc1ccc(-c2ccc3nnc(-c4ccc(O)c(OC)c4)n3c2)cn1` are > 50 µM (inactive), over 50 µM and over 50 µM.
For `O=C(Nc1nc(-c2ccccn2)cs1)N1C[C@H]2C[C@@]2(c2ccccc2)C1`, the IC50 is 0.5 µM. The compound also came in with an IC50 under setting [1] of 7.9 µM. The compound further registered a 50% inhibitory concentration (IC50) under setting [2] of 0.4 µM.
In the same order, the values of `O=C(Nc1nccs1)c1ccccc1Cn1cc([N+](=O)[O-])cn1` are > 50 µM (inactive), over 50 µM and over 50 µM.
For `N#Cc1cc(N2CCCC2=O)ccc1Sc1ccccc1CO`, in that order: > 50 µM (inactive), over 50 µM and over 50 µM.
In the same order, the values of `O=S1N=C(NCCCN(Cc2ccc(F)cc2)c2ccccn2)C(NCc2ccncc2)=N1` (configuration not stated) are > 50 µM (inactive), 25 µM and 25 µM.
For the compound `O=C(NCCc1ccccn1)C(c1cn[nH]c1)N1CCN(c2ccc(Cl)c(Cl)c2)CC1` (configuration not stated), the IC50 is > 50 µM (inactive). The IC50 under setting [1] is over 50 µM. Under setting [2], this compound returned a concentration for half-maximal inhibition (IC50) of 20 µM.
